In patent US20240217946A1, “ANTIDEPRESSANT AND ANXIOLYTIC SUBSTITUTED CINNAMAMIDE COMPOUND” (TASLY PHARMACEUTICAL GROUP CO., LTD., priority 2021, published 2024):
Where “and” joins values, the source holds several entries; their conditions need not be identical. Equal entries are not always repeated. Where two headings read alike, the source gives them in different places.

Legend:
[1] = Pharmacokinetics and absolute bioavailability in rats (LC-MS/MS); format: in vivo; conditions: rat; for MRT inf: read-out: MRT0-∞
From the text: A LC-MS/MS method for determination of compound I-5 and compound M2 in rat plasma was established through experiments to investigate the pharmacokinetic characteristics and absolute bioavailability of compounds in rats.
20 SPF-grade SD male rats (body weight 220±20 g), purchased from Beijing Vital River Laboratory Animal Technology Co., Ltd.
• Chromatographic column: waters BEH C18 1.7 μm; 2.1×100 mm Column • Internal standard: D-I-5 (deuterated compound I-5, with the following structural formula)
20 SD rats were randomly divided into 4 groups, with 5 rats in each group. […]
50 μL plasma was taken, 50 μL D-I-5 (20 ng/mL dissolved in acetonitrile) was added, the mixture was whirled for 30 s, then 100 μL acetonitrile was added; the mixture was fully whirled for 2 min, and was centrifuged at 4° C. at 12000 r/min for 3 min, 50 μL supernatant was taken, 50 μL aqueous solution was added for dilution, followed by whirling for Imin, and 4 μL sample was injected.
The mean plasma concentration-time curves of rats after oral intragastric administration and intravenous administration were respectively shown in FIGS. 8 and 9. Data were processed using DAS 3.0 pharmacokinetic software (Chinese Professional Committee of Mathematical Pharmacology, Shanghai, China), and statistical moment parameters of the non-compartmental model were calculated, Cmax and Tmax being measured values.

[2] = system: mice; conditions: 10 mg/kg for 7 days; cited from earlier work
[3] = system: mice; conditions: 10 mg/kg continuously for 7 days; cited from earlier work
[4] = system: mice; conditions: mouse, in vivo; cited from earlier work
[5] = male, SD, plasma, po, intragastric administration 12.5 mg/kg, n = 5
[6] = male, SD, plasma, intravenous administration 2.5 mg/kg, n = 5
[7] = male, Sprague-Dawley (SD), plasma, po, intragastric administration 12.5 mg/kg, n = 5
[8] = male, Sprague-Dawley (SD), plasma, intravenous administration 2.5 mg/kg, n = 5

bioavailability ([1]; male, SD, plasma, oral, absolute bioavailability, intragastric 12.5 mg/kg vs intravenous 2.5 mg/kg, read-out: F (bioavailability, %)): 24.1%
AUC(0-t) [1, 5]: 523 ± 433 ng·h/mL
Tmax [1, 5]: 21 min
half-life [1, 5]: 55.8 ± 22.8 min
C0 [1, 6]: 2050 ± 907 ng/mL
half-life [1, 6]: 39.6 ± 4.2 min
concentration at 0.08 h ([1]; male, SD, plasma, iv, 2.5 mg/kg, single intravenous 2.5 mg/kg, 0.08 h, read-out: Plasma concentration, Mean): 1150 ng/mL
concentration at 0.25 h ([1]; male, SD, plasma, iv, 2.5 mg/kg, single intravenous 2.5 mg/kg, 0.25 h, read-out: Plasma concentration, Mean): 393 ng/mL
concentration at 0.5 h ([1]; male, SD, plasma, iv, 2.5 mg/kg, single intravenous 2.5 mg/kg, 0.50 h): 152 ng/mL
concentration at 1 h ([1]; male, SD, plasma, iv, 2.5 mg/kg, single intravenous 2.5 mg/kg, 1 h, read-out: Plasma concentration, Mean): 60.3 ng/mL
concentration at 2 h ([1]; male, SD, plasma, iv, 2.5 mg/kg, single intravenous 2.5 mg/kg, 2 h): 16.8 ng/mL
concentration at 3 h ([1]; male, SD, plasma, iv, 2.5 mg/kg, single intravenous 2.5 mg/kg, 3 h): 6.9 ng/mL
concentration at 4 h ([1]; male, SD, plasma, iv, 2.5 mg/kg, single intravenous 2.5 mg/kg, 4 h, read-out: Plasma concentration, Mean): 3 ng/mL
concentration at 4 h ([1]; male, SD, plasma, iv, 2.5 mg/kg, single intravenous 2.5 mg/kg, 4 h, read-out: Plasma concentration, individual rats): 3.01 ng/mL
concentration at 0.08 h ([1]; male, SD, plasma, oral, 12.5 mg/kg, single intragastric 12.5 mg/kg, 0.08 h, read-out: Plasma concentration, Mean): 118 ng/mL
concentration at 0.25 h ([1]; male, SD, plasma, oral, 12.5 mg/kg, single intragastric 12.5 mg/kg, 0.25 h, read-out: Plasma concentration, Mean): 367 ng/mL
concentration at 0.5 h ([1]; male, SD, plasma, oral, 12.5 mg/kg, single intragastric 12.5 mg/kg, 0.50 h): 334 ng/mL
concentration at 1 h ([1]; male, SD, plasma, oral, 12.5 mg/kg, single intragastric 12.5 mg/kg, 1 h, read-out: Plasma concentration, Mean): 266 ng/mL
concentration at 2 h ([1]; male, SD, plasma, oral, 12.5 mg/kg, single intragastric 12.5 mg/kg, 2 h): 109 ng/mL
concentration at 3 h ([1]; male, SD, plasma, oral, 12.5 mg/kg, single intragastric 12.5 mg/kg, 3 h): 44.4 ng/mL
concentration at 4 h ([1]; male, SD, plasma, oral, 12.5 mg/kg, single intragastric 12.5 mg/kg, 4 h, read-out: Plasma concentration, Mean): 15.3 ng/mL
concentration at 6 h ([1]; male, SD, plasma, oral, 12.5 mg/kg, single intragastric 12.5 mg/kg, 6 h): 6.6 ng/mL
Cmax ([1]; male, SD, plasma, po, 12.5 mg/kg, intragastric administration 12.5 mg/kg, n = 5, read-out: Cmax): 361 ± 258 ng/mL
AUC(0-inf) [1, 7]: 659 ± 371 ng·h/mL
MRT inf [1, 7]: 69.6 ± 7.2 min
AUC(0-inf) [1, 8]: 438 ± 139 ng·h/mL
AUC(0-t) [1, 8]: 436 ± 138 ng·h/mL
MRT inf [1, 8]: 22.2 ± 6.6 min
Plasma concentration, individual rats ([1]; single intragastric 12.5 mg/kg, 8 h): BOL and BQL (4×)
Plasma concentration, individual rats ([1]; single intravenous 2.5 mg/kg, 6 h): BQL
Plasma concentration, individual rats ([1]; single intravenous 2.5 mg/kg, 8 h): BQL
SMILES: CC(C)CNC(=O)/C=C/c1cc2c(c(C(F)(F)F)c1)OCO2 [Compound I-5]
Plasma concentration, individual rats ([1]; single intragastric 12.5 mg/kg, 0.08 h): 140 ng/mL and 3.59 ng/mL and 70.1 ng/mL and 214 ng/mL and 164 ng/mL
Plasma concentration, individual rats ([1]; single intragastric 12.5 mg/kg, 0.25 h): 706 ng/mL and 7.11 ng/mL and 371 ng/mL and 389 ng/mL and 361 ng/mL
Plasma concentration, individual rats ([1]; single intragastric 12.5 mg/kg, 0.50 h): 735 ng/mL and 4.71 ng/mL and 416 ng/mL and 268 ng/mL and 246 ng/mL
Plasma concentration, individual rats ([1]; single intragastric 12.5 mg/kg, 1 h): 450 ng/mL and BQL and 391 ng/mL and 92.3 ng/mL and 132 ng/mL
Plasma concentration, individual rats ([1]; single intragastric 12.5 mg/kg, 2 h): 224 ng/mL and BQL and 134 ng/mL and 35.8 ng/mL and 43.0 ng/mL
Plasma concentration, individual rats ([1]; single intragastric 12.5 mg/kg, 3 h): 84.5 ng/mL and BQL and 58.4 ng/mL and 11.3 ng/mL and 23.6 ng/mL
Plasma concentration, individual rats ([1]; single intragastric 12.5 mg/kg, 4 h): 27.3 ng/mL and BQL and 17.3 ng/mL and 10.7 ng/mL and 6.16 ng/mL
Plasma concentration, individual rats ([1]; single intragastric 12.5 mg/kg, 6 h): 5.64 ng/mL and BQL and 3.20 ng/mL and 5.66 ng/mL and 12.2 ng/mL
Plasma concentration, individual rats ([1]; single intravenous 2.5 mg/kg, 0.08 h, 2.5 mg/kg): 1750 ng/mL and 1150 ng/mL and 659 ng/mL and 865 ng/mL and 1350 ng/mL
Plasma concentration, individual rats ([1]; single intravenous 2.5 mg/kg, 0.25 h, 2.5 mg/kg): 628 ng/mL and 247 ng/mL and 540 ng/mL and 260 ng/mL and 291 ng/mL
Plasma concentration, individual rats ([1]; single intravenous 2.5 mg/kg, 0.50 h, 2.5 mg/kg): 243 ng/mL and 75.7 ng/mL and 225 ng/mL and 95.9 ng/mL and 120 ng/mL
Plasma concentration, individual rats ([1]; single intravenous 2.5 mg/kg, 1 h, 2.5 mg/kg): 103 ng/mL and 24.9 ng/mL and 80.2 ng/mL and 52.0 ng/mL and 41.6 ng/mL
Plasma concentration, individual rats ([1]; single intravenous 2.5 mg/kg, 2 h, 2.5 mg/kg): 25.1 ng/mL and 6.66 ng/mL and 19.3 ng/mL and 15.2 ng/mL and 17.7 ng/mL
Plasma concentration, individual rats ([1]; single intravenous 2.5 mg/kg, 3 h, 2.5 mg/kg): 8.95 ng/mL and 2.49 ng/mL and 9.76 ng/mL and 5.45 ng/mL and 7.89 ng/mL
Plasma concentration, individual rats ([1]; single intravenous 2.5 mg/kg, 4 h, 2.5 mg/kg): BQL and 3.38 ng/mL and 2.60 ng/mL and 3.08 ng/mL
immobility time of tail suspension in mice [2]: significantly shorten the immobility time
reserpine-induced body temperature decrease and akinesia in mice, degree of eye closure [3]: significantly antagonizing
immobility time of forced swimming in mice [4]: significantly shorten the immobility time
